# Results reported in PubChem BioAssay (NCI).
#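 Method: 48-hour compound exposure of cells in 96-well plates, five concentrations, linear interpolation of endpoints. GI50 is the concentration that inhibits growth by half. TGI denotes the concentration required for complete inhibition of growth.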
# How the values were obtained:
# Experiment in all cases: NCI anticancer screen, dose series, 48 h
# [1] = system: RXF 393 renal
# [2] = system: A549 NSCLC
# [3] = system: SNB-78 CNS
# [4] = system: 786-0 renal
# [5] = system: UACC-257 melanoma
# [6] = system: SNB-75 CNS
# [7] = system: MCF7 breast
# [8] = system: DU-145 prostate
# [9] = system: TK-10 renal
# [10] = system: MDA-MB-435
# [11] = system: CAKI-1 renal
# [12] = system: OVCAR-4 ovarian
# [13] = system: SK-MEL-28 melanoma
# [14] = system: SK-OV-3 ovarian
# [15] = system: U251 CNS
# [16] = system: SN12C renal
# [17] = system: SNB-19 CNS
# [18] = system: SK-MEL-5 melanoma
# [19] = system: NCI-H460 lung
# [20] = system: MDA-N
# [21] = system: NCI-H522 lung
# [22] = system: HCT-15 colon
# [23] = system: OVCAR-5 ovarian
# [24] = system: T-47D breast
# [25] = system: OVCAR-3 ovarian
# [26] = system: PC-3 prostate
# [27] = system: MDA-MB-231 breast
# [28] = system: HOP-62 NSCLC
# [29] = system: KM20L2 colon
# [30] = system: SF-295 CNS
# [31] = system: KM12 colon
# [32] = system: ACHN renal
# [33] = system: SW-620 colon
# [34] = system: NCI-H226 lung
# [35] = system: K-562 leukemia
# [36] = system: SF-268 CNS
# [37] = system: RPMI-8226 leukemia
# [38] = system: MALME-3M melanoma
# [39] = system: SF-539 CNS
# [40] = system: SK-MEL-2 melanoma
# [41] = system: HT29 colon
# [42] = system: LOX IMVI melanoma
# [43] = system: MOLT-4 leukemia
# [44] = system: M14 melanoma
# [45] = system: OVCAR-8 ovarian
# [46] = system: HCT-116 colon
# [47] = system: COLO 205 colon
# [48] = system: BT-549 breast
# [49] = system: SR leukemia
# [50] = system: HOP-92 NSCLC
# [51] = system: HCC-2998 colon
# [52] = system: UO-31 renal
# [53] = system: EKVX NSCLC
# [54] = system: HS 578T breast
# [55] = system: IGROV1 ovarian
# [56] = system: NCI-H23 lung
# [57] = system: HL-60(TB) leukemia
# [58] = system: CCRF-CEM leukemia
# [59] = system: A498 renal
# [60] = system: UACC-62 melanoma
# [61] = system: M19-MEL melanoma
# [62] = system: LXFL 529 NSCLC
# [63] = system: DMS 114 small cell lung
# [64] = system: DLD-1 colon
# [65] = system: DMS 273 small cell lung
# [66] = system: NCI/ADR-RES ovarian
compound,measurement,setting,value
CN(C)CCCNc1ccnc2cccc([N+](=O)[O-])c12,TGI,[1],61.1 µM
same,TGI,[2],35.7 µM
same,TGI,[3],61.6 µM
same,TGI,[4],37.1 µM
same,TGI,[5],30.7 µM
same,TGI,[6],73.4 µM
same,TGI,[7],28.2 µM
same,TGI,[8],> 100 µM
same,TGI,[9],36 µM
same,TGI,[10],42.3 µM
same,TGI,[11],52.8 µM
same,TGI,[12],20.4 µM
same,TGI,[13],35.4 µM
same,TGI,[14],22.9 µM
same,TGI,[15],> 70.7 µM
same,TGI,[16],30.8 µM
same,TGI,[17],56.6 µM
same,TGI,[18],24.4 µM
same,TGI,[19],25.2 µM
same,TGI,[20],47 µM
same,TGI,[21],18.2 µM
same,TGI,[22],39.9 µM
same,TGI,[23],44.1 µM
same,TGI,[24],80.8 µM
same,TGI,[25],20.6 µM
same,TGI,[26],30.3 µM
same,TGI,[27],39.6 µM
same,TGI,[28],> 56.9 µM
same,TGI,[29],25.9 µM
same,TGI,[30],36.5 µM
same,TGI,[31],27 µM
same,TGI,[32],24.3 µM
same,TGI,[33],40.1 µM
same,TGI,[34],38.2 µM
same,TGI,[35],> 100 µM
same,TGI,[36],47.7 µM
same,TGI,[37],> 100 µM
same,TGI,[38],21.4 µM
same,TGI,[39],45.1 µM
same,TGI,[40],33.8 µM
same,TGI,[41],27 µM
same,TGI,[42],35.8 µM
same,TGI,[43],> 100 µM
same,TGI,[44],25.8 µM
same,TGI,[45],> 100 µM
same,TGI,[46],27.7 µM
same,TGI,[47],15.6 µM
same,TGI,[48],43.9 µM
same,TGI,[49],> 100 µM
same,TGI,[50],28.8 µM
same,TGI,[51],32.1 µM
same,TGI,[52],38.8 µM
same,TGI,[53],19.9 µM
same,TGI,[54],97.1 µM
same,TGI,[55],28.3 µM
same,TGI,[56],23.5 µM
same,TGI,[57],> 100 µM
same,TGI,[58],> 100 µM
same,TGI,[59],30.7 µM
C1C[OH+]CC[OH+]CC[OH+]CC[OH+]CC[OH+]CC[OH+]1.[Cl-].[V],GI50,[1],4.89 µM
same,TGI,[1],19 µM
same,GI50,[2],39.1 µM
same,TGI,[2],> 100 µM
same,GI50,[4],11.7 µM
same,TGI,[4],33.9 µM
same,GI50,[5],16.6 µM
same,TGI,[5],37.4 µM
same,GI50,[6],13.9 µM
same,TGI,[6],30 µM
same,GI50,[60],10.7 µM
same,TGI,[60],51.4 µM
same,GI50,[9],20.4 µM
same,TGI,[9],92.5 µM
same,GI50,[11],36.9 µM
same,TGI,[11],> 100 µM
same,GI50,[12],2.52 µM
same,TGI,[12],9.27 µM
same,GI50,[13],13.7 µM
same,TGI,[13],43.5 µM
same,GI50,[14],45.9 µM
same,TGI,[14],97 µM
same,GI50,[15],35.8 µM
same,TGI,[15],> 100 µM
same,GI50,[16],> 100 µM
same,TGI,[16],> 100 µM
same,GI50,[17],47.1 µM
same,TGI,[17],> 100 µM
same,GI50,[18],4.76 µM
same,TGI,[18],25.3 µM
same,GI50,[19],36 µM
same,TGI,[19],> 100 µM
same,GI50,[21],26.3 µM
same,TGI,[21],99.5 µM
same,GI50,[22],50.9 µM
same,TGI,[22],> 100 µM
same,GI50,[25],20.7 µM
same,TGI,[25],41.8 µM
same,GI50,[28],19.2 µM
same,TGI,[28],33.9 µM
same,GI50,[29],46.5 µM
same,TGI,[29],> 100 µM
same,GI50,[30],18.7 µM
same,TGI,[30],43.8 µM
same,GI50,[31],31.3 µM
same,TGI,[31],> 100 µM
same,GI50,[32],31.1 µM
same,TGI,[32],> 100 µM
same,GI50,[33],49.6 µM
same,TGI,[33],> 100 µM
same,GI50,[34],40.1 µM
same,TGI,[34],> 100 µM
same,GI50,[35],> 100 µM
same,TGI,[35],> 100 µM
same,GI50,[36],42.9 µM
same,TGI,[36],> 100 µM
same,GI50,[37],64.1 µM
same,TGI,[37],> 100 µM
same,GI50,[38],8.19 µM
same,TGI,[38],28.7 µM
same,GI50,[39],5.43 µM
same,TGI,[39],17.9 µM
same,GI50,[40],29.2 µM
same,TGI,[40],98.2 µM
same,GI50,[41],39.7 µM
same,TGI,[41],> 100 µM
same,GI50,[42],20.7 µM
same,TGI,[42],38.7 µM
same,GI50,[43],82.5 µM
same,TGI,[43],> 100 µM
same,GI50,[44],12.1 µM
same,TGI,[44],93.8 µM
same,GI50,[45],> 100 µM
same,TGI,[45],> 100 µM
same,GI50,[46],35.9 µM
same,TGI,[46],> 100 µM
same,GI50,[47],> 100 µM
same,TGI,[47],> 100 µM
same,GI50,[50],31.5 µM
same,TGI,[50],99.2 µM
same,GI50,[51],71.9 µM
same,TGI,[51],> 100 µM
same,GI50,[52],> 100 µM
same,TGI,[52],> 100 µM
same,GI50,[55],13 µM
same,TGI,[55],> 100 µM
same,GI50,[56],21.9 µM
same,TGI,[56],47.7 µM
same,GI50,[57],37.1 µM
same,TGI,[57],> 100 µM
same,GI50,[59],> 100 µM
same,TGI,[59],> 100 µM
COc1ccc(C(=O)N2c3ccccc3N(C)n3cccc3C2CC(=O)O)cc1 (stereo unspecified),TGI,[1],> 100 µM
same,TGI,[61],> 100 µM
same,TGI,[2],> 100 µM
same,TGI,[3],> 100 µM
same,TGI,[4],> 100 µM
same,TGI,[5],> 100 µM
same,TGI,[6],> 100 µM
same,TGI,[60],> 100 µM
same,TGI,[9],> 100 µM
same,TGI,[11],> 100 µM
same,TGI,[12],> 100 µM
same,TGI,[13],> 100 µM
same,TGI,[14],> 100 µM
same,TGI,[62],> 100 µM
same,TGI,[16],> 100 µM
same,TGI,[17],> 100 µM
same,TGI,[18],> 100 µM
same,TGI,[19],> 100 µM
same,TGI,[63],> 100 µM
same,TGI,[21],> 100 µM
same,TGI,[22],> 100 µM
same,TGI,[23],> 100 µM
same,TGI,[25],> 100 µM
same,TGI,[28],> 100 µM
same,TGI,[29],> 100 µM
same,TGI,[30],> 100 µM
same,TGI,[31],> 100 µM
same,TGI,[32],> 100 µM
same,TGI,[33],> 100 µM
same,TGI,[34],> 100 µM
same,TGI,[35],> 100 µM
same,TGI,[36],> 100 µM
same,TGI,[37],> 100 µM
same,TGI,[38],> 100 µM
same,TGI,[39],> 100 µM
same,TGI,[40],> 100 µM
same,TGI,[41],> 100 µM
same,TGI,[42],> 100 µM
same,TGI,[43],> 100 µM
same,TGI,[44],> 100 µM
same,TGI,[45],> 100 µM
same,TGI,[47],> 100 µM
same,TGI,[50],> 100 µM
same,TGI,[51],> 100 µM
same,TGI,[64],> 100 µM
same,TGI,[52],> 100 µM
same,TGI,[53],> 100 µM
same,TGI,[65],> 100 µM
same,TGI,[55],> 100 µM
same,TGI,[56],> 100 µM
same,TGI,[57],> 100 µM
same,TGI,[58],> 100 µM
same,TGI,[59],> 100 µM
Cc1nc2ccccc2nc1NNc1ccccc1,GI50,[1],18.6 µM
same,TGI,[1],78.7 µM
same,TGI,[2],> 95.9 µM
same,TGI,[4],> 92.1 µM
same,TGI,[5],74.3 µM
same,TGI,[6],> 84.9 µM
same,TGI,[7],> 100 µM
same,TGI,[60],43.4 µM
same,TGI,[8],> 86.1 µM
same,TGI,[9],98.7 µM
same,TGI,[10],41.7 µM
same,TGI,[11],> 100 µM
same,TGI,[12],> 87.8 µM
same,TGI,[13],> 96.7 µM
same,GI50,[14],24.8 µM
same,TGI,[14],> 100 µM
same,TGI,[15],> 93.5 µM
same,TGI,[16],72.9 µM
same,TGI,[17],> 100 µM
same,TGI,[18],31.5 µM
same,TGI,[19],> 88.7 µM
same,TGI,[20],48.9 µM
same,TGI,[21],> 88.4 µM
same,TGI,[22],> 82.6 µM
same,TGI,[23],> 84.4 µM
same,TGI,[24],46.9 µM
same,TGI,[25],70.4 µM
same,TGI,[26],> 84.4 µM
same,TGI,[27],70.7 µM
same,TGI,[28],86.6 µM
same,TGI,[30],> 93.6 µM
same,TGI,[31],63.4 µM
same,TGI,[32],85.9 µM
same,TGI,[33],> 74.9 µM
same,TGI,[34],85.7 µM
same,TGI,[35],74.5 µM
same,TGI,[36],> 100 µM
same,TGI,[37],41 µM
same,TGI,[38],69.5 µM
same,TGI,[39],> 96.2 µM
same,TGI,[40],> 80.8 µM
same,TGI,[41],18.7 µM
same,TGI,[42],70.7 µM
same,GI50,[43],12.1 µM
same,TGI,[43],40.7 µM
same,TGI,[44],64.8 µM
same,TGI,[45],77.8 µM
same,TGI,[46],> 100 µM
same,TGI,[47],1.03 µM
same,TGI,[48],70 µM
same,TGI,[49],74.5 µM
same,TGI,[50],57 µM
same,TGI,[51],> 100 µM
same,TGI,[66],75.8 µM
same,TGI,[52],> 86.5 µM
same,TGI,[53],68.2 µM
same,TGI,[54],> 95.1 µM
same,TGI,[55],73.3 µM
same,TGI,[56],77.2 µM
same,TGI,[57],58.8 µM
same,TGI,[58],78.7 µM
same,TGI,[59],> 94.5 µM
